Measured values from patent US20080064679A1, “Water Soluble Cannabinoids” (priority 2004, published 2008).
“And” between values parts separate entries of the source, which are not always exact repeats. Identical values can stand only once. “Also recorded” adds a separate entry of the source.

Legend:
human CB1 receptor [1] = target: T1, human CB1 receptor (Homo sapiens, UniProt P21554); test: CB1 receptor binding, [3H]CP55,940 displacement in membranes of transfected cells; conditions: CB1 Ki
T1 construct: expressed in transfected cells; b94 says CHO for CB1
Method: (§1) For the in vivo studies, the drugs were dissolved in either saline or emulphor:ethanol:saline (E:E:S) as indicated.
(§2) cLogP calculations. Absolute solubility determinations were not performed. Rather, cLogP calculations were performed using the CS ChemDraw Ultra software (Cambridge Soft Corporation, Cambridge, Mass.). Receptor Binding. HEK-293 cells stably expressing the human CB1 receptor were cultured in DMEM with 10% FBS and Chinese Hamster Ovary (CHO) cells stably expressing the human CB2 receptor were cultured in DMEM with 10% FCS. Cells were harvested by replacement of the media with cold phosphate-buffered saline containing 1 mM EDTA followed by centrifugation at 1000×g for 5 min at 4° C. The pellet was resuspended in 50 mM Tris-HCl containing 320 mM sucrose, 2 mM EDTA and 5 mM MgCl2 (pH 7.4) (centrifugation buffer), then centrifuged at 1000×g for 10 min at 4° C., and the resulting supernatant was saved. This process was repeated twice. The supernatant fractions were combined and centrifuged at 40,000×g for 30 min at 4° C. The resulting P2 pellet was resuspended in assay buffer (50 mM Tris-HCl (pH 7.4), 3 mM MgCl2, 0.2 mM EGTA, and 100 mM NaCl) and protein was determined by the method of Bradford ENRfu(Bradford 1976). Membranes were stored at −80° C. until use. […] The assay was incubated at 30° C. for 1 hr and terminated by addition of ice cold 50 mM Tris-HCl plus BSA (1 mg/ml) (pH 7.4) followed by filtration under vacuum through Whatman GF/B glass fiber filters with 3 washes with cold Tris buffer. Bound radioactivity was determined by liquid scintillation spectrophotometry at 50% efficiency after extraction by shaking samples for 30-60 min with Budget-Solve scintillation fluid. Data are reported as the mean±SEM of three experiments, each performed in triplicate. Ki values were calculated from displacement data using EBDA (Equilibrium Binding Data Analysis; BIOSOFT, Milltown, N.J.). [^35S]GTPγS Binding Assays. Concentration-effect curves were generated by incubating membranes (10 μg prepared from CB1 expressing cells as described above) in assay buffer containing BSA (1 mg/ml) with various concentrations of test compounds in the presence of 20 μM GDP and 0.1 nM [^35S]GTPγS in a 1 ml total volume. […] Basal binding was assessed in the absence of agonist, and nonspecific binding was measured in the presence of 10 μM GTPγS. The reaction was incubated for 90 min at 30° C. and terminated by filtration under vacuum through Whatman GF/B glass fiber filters with 3 washes with cold (4° C.) Tris buffer (50 mM Tris-HCl, pH 7.4). Bound radioactivity was determined by liquid scintillation spectrophotometry at 95% efficiency after extraction overnight in ScintiSafe Econo 1 scintillation fluid. Data are reported as mean±SEM of three experiments, each performed in triplicate. Nonlinear regression analysis was conducted by iterative fitting using JMP (SAS for Macintosh). Net-stimulated [^35S]GTPγS binding is defined as [^35S]GTPγS binding in the presence of drug minus basal and percent stimulation is expressed as (net stimulated [^35S]GTPγS binding/basal)×100%. Behavioral Evaluations. All animals were allowed to acclimate to the observation room overnight. Behavioral effects were assessed in the tetrad model in order to measure potency in producing antinociception, catalepsy, hypothermia, and hypomobility. The baselines for tail-flick latency (2-4 seconds) and rectal temperature were determined prior to i.v. injections. Baseline rectal temperatures were measured using a telethermometer and a thermometer probe inserted to 25 mm (Yellow Springs Instrument Co., Yellow Springs, Ohio). The mice were then given either an i.v. i.c.v. injection of the analog. The mice were placed in individual photocell activity chambers 5 min later. Spontaneous activity was monitored for 10 min in a Digiscan Animal Activity Monitor (Omnitech Electronice, Inc., Columbus, Ohio) as measured by the number of interruptions of 16 photocell beams per chamber.

human CB1 receptor [2] = target: T1, human CB1 receptor; test: [35S]GTPγS binding assay in membranes of CB1 expressing cells; type: biochemical; conditions: for EC50: CB1 EC50, [35S]GTPγS binding, mean±SEM; for Emax: maximal GTPγS binding as percentage of stimulation produced by CP 55,940, read-out: CB1 % CP Stim
Method: as §1, §2

mice [3] = test: Spontaneous activity (S.A.), mouse tetrad; type: in vivo; conditions: Mus musculus, iv
mice [4] = test: Tail-flick antinociception (T.F.), mouse tetrad; type: in vivo; conditions: for ED50: Mus musculus, iv, mice, i.v.; for Analgesia in the tail-flick procedure: oral 10 mg/kg
mice [5] = test: Rectal temperature (R.T.), mouse tetrad; type: in vivo; conditions: Mus musculus, iv
mice [6] = test: Relative immobility (R.I.), ring-immobility test, mouse tetrad; type: in vivo; conditions: Mus musculus, iv
mice [7] = test: Tetrad model, all four behavioral measures together (time course, oral and i.c.v. administration); type: in vivo, mouse; conditions: for Potency following oral administration (four tests) / Time course of effects following oral administration: 10 mg/kg; for Potency following oral administration (four tests): 30 minutes before the start of testing; for Time course of effects following oral administration: different time points before testing
[8] = Stability in buffer, plasma and microsomal enzymes
[9] = vehicle E:E:S (1:1:18), read-out: S.A. ED50 (reducing spontaneous activity)
[10] = vehicle E:E:S (1:1:18), read-out: T.F. ED50 (antinociception in the tail-flick procedure)
[11] = vehicle E:E:S (1:1:18), read-out: R.T. ED50 (lowering rectal temperature)
[12] = vehicle E:E:S (1:1:18), read-out: R.I. ED50 (relative immobility)
[13] = figure legends, i.v., vehicle 1:1:18 ethanol:emulphor:saline, read-out: ED50 after i.v. administration, spontaneous activity
[14] = figure legends, vehicle 1:1:18 ethanol:emulphor:saline, read-out: ED50 after i.v. administration, tail-flick
[15] = figure legends, i.v., vehicle 1:1:18 ethanol:emulphor:saline, read-out: ED50 after i.v. administration, rectal temperature
[16] = figure legends, i.v., vehicle 1:1:18 ethanol:emulphor:saline, read-out: ED50 after i.v. administration, relative immobility

T1 sequence (P21554 whole entry): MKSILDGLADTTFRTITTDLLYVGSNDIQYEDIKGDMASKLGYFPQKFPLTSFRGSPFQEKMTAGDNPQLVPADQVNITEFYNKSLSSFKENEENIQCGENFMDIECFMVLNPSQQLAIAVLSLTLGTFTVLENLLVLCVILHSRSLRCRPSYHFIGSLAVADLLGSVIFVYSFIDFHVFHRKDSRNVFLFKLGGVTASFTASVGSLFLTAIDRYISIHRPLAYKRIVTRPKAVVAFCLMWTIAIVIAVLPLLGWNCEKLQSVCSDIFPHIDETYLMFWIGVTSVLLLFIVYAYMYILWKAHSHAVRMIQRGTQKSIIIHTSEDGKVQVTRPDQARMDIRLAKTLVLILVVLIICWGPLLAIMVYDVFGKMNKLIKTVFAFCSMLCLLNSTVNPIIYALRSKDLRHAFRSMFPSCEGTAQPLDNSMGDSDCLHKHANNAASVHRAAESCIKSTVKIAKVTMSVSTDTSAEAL

CC1=CC[C@@H]2[C@@H](C1)c1c(O)cc(C(C)(C)CCCCn3ccnc3)cc1OC2(C)C [O-2545, Imidazol-1-yl]
Ki (human CB1 receptor [1]): 1.34 nM and 1.47 nM | EC50 (human CB1 receptor [2]): 29.3 nM and 4.57 nM | ED50 (mice [3]; figure legends, i.v., saline, read-out: ED50 after i.v. administration, spontaneous activity): 0.09 µmol/kg | ED50 (mice [3]; [9]): 0.01 µmol/kg | ED50 (mice [3]; vehicle saline, read-out: S.A. ED50 (reducing spontaneous activity)): 0.09 µmol/kg | ED50 (mice [4]; figure legends, saline, read-out: ED50 after i.v. administration, tail-flick response): 0.16 µmol/kg | ED50 (mice [4]; [10]): 0.07 µmol/kg | ED50 (mice [4]; vehicle saline, read-out: T.F. ED50 (antinociception in the tail-flick procedure)): 0.16 µmol/kg | Analgesia in the tail-flick procedure (mice [4]; at two hrs, mean±sem): 85±11% | ED50 (mice [5]; figure legends, i.v., saline, read-out: ED50 after i.v. administration, rectal temperature): 0.29 µmol/kg | ED50 (mice [5]; [11]): 0.04 µmol/kg | ED50 (mice [5]; vehicle saline, read-out: R.T. ED50 (lowering rectal temperature)): 0.29 µmol/kg | ED50 (mice [6]; figure legends, i.v., saline, read-out: ED50 after i.v. administration, relative immobility): 0.14 µmol/kg | ED50 (mice [6]; [12]): 0.13 µmol/kg | ED50 (mice [6]; vehicle saline, read-out: R.I. ED50 (relative immobility)): 0.14 µmol/kg | Time course of effects after i.v. administration (mice [7]; FIG. 10, 0.24 μmoles/kg i.v., saline): At 1 hr all effects, except ring immobility, are present but only antinociception is present at 2 hours | Activity in the behavioral tests after i.c.v. injection (mice [7]; i.c.v., analogs dissolved in water, THC in emulphor:ethanol:saline, Table 5 not given): the most potent | In vivo potency relative to Δ^9-THC (times more potent) (mice [7]; mice, i.v., 1:1:18 vehicle): at least 40 fold | Potency following oral administration (four tests) (mice [7]): fully effective in producing antinociception, hypothermia and ring immobility but was only a partial agonist in producing sedation | Time course of effects following oral administration (mice [7]): By four hrs the effects had largely dissipated; also recorded: produce the full range of effects up to 2 hours | Stability in buffer, plasma and microsomal enzymes [8]: excellent stability in buffer and plasma and microsomal enzymes

CC1=CC[C@@H]2[C@@H](C1)c1c(O)cc(C(C)(C)CCCCn3cccn3)cc1OC2(C)C [O-2715, Pyrazol-1-yl]
Ki (human CB1 receptor [1]): 1.94 ± 0.29 nM | EC50 (human CB1 receptor [2]): 4.03 ± 0.28 nM | Emax (human CB1 receptor [2]): 93 ± 1.75% | ED50 (mice [3]; [13]): 0.004 µmol/kg | ED50 (mice [3]; [9]): 0.004 µmol/kg | ED50 (mice [4]; [14]): 0.06 µmol/kg | ED50 (mice [4]; [10]): 0.06 µmol/kg | Analgesia in the tail-flick procedure (mice [4]; at one hr): 21±6% | ED50 (mice [5]; [15]): 0.14 µmol/kg | ED50 (mice [5]; [11]): 0.14 µmol/kg | ED50 (mice [6]; [16]): 0.07 µmol/kg | ED50 (mice [6]; [12]): 0.07 µmol/kg | Time course of effects after i.v. administration (mice [7]; FIG. 12, 0.3 mg/kg (0.74 μmoles/kg) i.v., vehicle 1:1:18): duration of antinociception and hypothermia exceeded that of sedation and relative immobility | Potency following oral administration (four tests) (mice [7]): active in all tests | Time course of effects following oral administration (mice [7]): negligible effects at one hr; also recorded: effects that lasted only 1 hour

CC1=CC[C@@H]2[C@@H](C1)c1c(O)cc(C(C)(C)CCCCn3cncn3)cc1OC2(C)C [O-2716, 1,2,4-Triazol-1-yl]
Ki (human CB1 receptor [1]): 3.43 ± 0.16 nM | EC50 (human CB1 receptor [2]): 36.8 ± 4.23 nM | Emax (human CB1 receptor [2]): 93.1 ± 1.65% | ED50 (mice [3]; [13]): 0.03 µmol/kg | ED50 (mice [3]; [9]): 0.03 µmol/kg | ED50 (mice [4]; [14]): 0.09 µmol/kg | ED50 (mice [4]; [10]): 0.09 µmol/kg | Antinociception following oral administration (mice [4]; oral, maximum dose tested 10 mg/kg, 30 minutes before testing): failed to produce complete antinociception | ED50 (mice [5]; [15]): 0.15 µmol/kg | ED50 (mice [5]; [11]): 0.15 µmol/kg | ED50 (mice [6]; [16]): 0.2 µmol/kg | ED50 (mice [6]; [12]): 0.2 µmol/kg | Time course of effects after i.v. administration (mice [7]; FIG. 11, 0.1 mg/kg (0.24 μmoles/kg) i.v., vehicle 1:1:18): relatively short acting with most of the effects gone by 1 hour and no separation of effects | Time course of effects following oral administration (mice [7]): Maximal effects were observed at 30 min and only a slight decrease in activity was observed at 2 hrs; also recorded: effects lasted at least 2 hours
